Source: patent US20180153872A1, “HETEROARYL CARBONITRILES FOR THE TREATMENT OF DISEASE” (OPKO Health, Inc., priority 2015, published 2018)
Where two headings read alike, the source gives them in different places.

What was measured:
[1] = Rising single-dose safety, tolerability and pharmacokinetics study in healthy human volunteers; format: in vivo
Experimental: A randomized, placebo-controlled, third party blind (within dose level), rising, single-dose escalation study to evaluate the safety, tolerability and pharmacokinetics of SCH900978 in healthy human volunteers was conducted and completed. […] Six subjects received placebo. […] Food had no effect on the oral bioavailability of SCH900978. […] Tmax occurred within 0-4 hours at each dosage strength. Table 2 below provides the mean SCH900978 pharmacokinetic parameters following administration of a single oral dose of 25 mgs of SCH900978 capsule or solution to healthy volunteers.
Table 3 below provides the mean SCH900978 pharmacokinetic parameters following administration of a single oral dose of 50 mgs of SCH900978 to healthy volunteers under fasted and fed conditions.

NK1 receptor [2] = biological target: NK1 receptor (Homo sapiens, UniProt P25103); assay: Block of GR-73632-mediated calcium efflux in cells expressing the human NK1 receptor (Schild analysis); format: cell-based; settings: GR-73632-stimulated calcium efflux, read-out: Kb, equilibrium dissociation constant determined by Schild analysis
Source text: (§1) A compound of formula I (also designated SCH 900978) is a potent, selective, competitive neurokinin-1 (NK-1) receptor antagonist that is effective as an oral administered drug for the treatment of cough and meets this unmet medical need. In addition, this drug is effective for the treatment of overactive bladder (OAB) and other selected indications including major depression and alcohol dependency. […] The present invention comprises a compound of formula I having an effective dose for 90% inhibition [ED90]=0.2 mg/kg as determined in an in vivo pharmacodynamic model of NK1 receptor activity (gerbil foot thumping).
(§2) SCH900978 was also tested for NK2 and NK3 receptor activity and in 106 other receptors, transporters, enzymes and ion channels and had greater than 1000 fold lower affinity for these than for the NK1 receptor.

[3] = Pharmacokinetics/toxicokinetics and excretion in rats; format: in vivo, rat; settings: for plasma concentration-time profile: single oral dose
Source text: (§3) Urinary excretion was also substantial (approximately 20%).

NK2 receptor = biological target: T1, NK2 receptor (Homo sapiens, UniProt P21452); assay: NK2 receptor affinity; format: binding
T1 sequence (P21452 1-398): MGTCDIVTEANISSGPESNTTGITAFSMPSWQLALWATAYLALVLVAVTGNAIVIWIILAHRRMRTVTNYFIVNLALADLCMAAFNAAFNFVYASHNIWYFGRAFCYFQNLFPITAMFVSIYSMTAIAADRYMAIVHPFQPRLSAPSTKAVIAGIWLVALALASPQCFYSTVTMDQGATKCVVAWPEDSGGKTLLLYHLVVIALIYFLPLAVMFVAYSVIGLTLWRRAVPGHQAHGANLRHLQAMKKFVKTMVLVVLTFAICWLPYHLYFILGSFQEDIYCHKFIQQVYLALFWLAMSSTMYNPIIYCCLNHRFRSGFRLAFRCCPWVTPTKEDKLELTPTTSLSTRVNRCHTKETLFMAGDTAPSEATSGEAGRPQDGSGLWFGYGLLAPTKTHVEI
Source text: as §1, §2

capsaicin-induced cough = assay: Capsaicin-induced cough in conscious guinea pigs; format: in vivo; settings: guinea pig
Experimental: Inhalation of the irritant capsaicin induces coughing in both animals and humans, in part by releasing substance P from unmyelinated sensory C fibers in the lung. When administered orally to conscious guinea pigs six hours prior to inhalation of aerosolized capsaicin, SCH900978 attenuated capsaicin-induced cough in a dose-dependent manner (ED90=0.04 mg/kg) (FIG. 2).

NK1 receptor [4] = biological target: T2, NK1 receptor (Meriones unguiculatus, UniProt Q5DUB1); assay: NK1 receptor radioligand binding, gerbil; settings: no unit, Ki in nM
Experimental: as §2

[5] = Brain penetration, guinea pigs; format: in vivo, guinea pig
Experimental: as §3
(§4) The extent of brain penetration by SCH 900978 was evaluated after oral administration of SCH 900978 amorphous hydrochloride to female gerbils (0.1 mg/kg), male Sprague Dawley rats (5 mg/kg), and male guinea pigs (0.3 mg/kg).

Brain penetration, rats = format: in vivo, rat
Experimental: as §3, §4

NK1 receptor [6] = biological target: T3, NK1 receptor (Canis lupus familiaris, UniProt Q5DUB3); assay: Substance P-elicited blood pressure and minute volume changes in dogs; format: in vivo; settings: dog, 0.3 mg/kg oral
T3 construct: from tissue; host or cells: living dog

NK1 receptor [7] = biological target: T2, NK1 receptor; assay: Gerbil foot thumping (in vivo pharmacodynamic model of NK1 receptor activity); design: from tissue; host or cells: living gerbil (central NK1 receptors)
Source text: Intracerebroventricular administration of NK1 receptor agonists to gerbils induces vigorous thumping in the hind feet. This response can be blocked by NK1 receptor antagonists.

[8] = Pharmacokinetics/toxicokinetics and excretion in monkeys; format: in vivo, monkey; settings: for plasma concentration-time profile: single oral dose
Source text: as §3

in vivo = assay: in vivo
Experimental: A series of in vitro and in vivo studies examined the effects of SCH900978 on cardiovascular, respiratory and CNS functions. No adverse effects were observed. The NOAEL was ≥25 mg/kg in male rats, ≥12.5 mg/kg in female rats and ≥10 mg/kg in male cynomolgus monkeys; each dose was the highest dose tested.

[9] = 25 mg solution, single oral dose, n = 5
[10] = 50 mg fasted, single oral dose, n = 6
[11] = 50 mg fed, single oral dose, n = 6

T2 sequence (Q5DUB1 whole entry): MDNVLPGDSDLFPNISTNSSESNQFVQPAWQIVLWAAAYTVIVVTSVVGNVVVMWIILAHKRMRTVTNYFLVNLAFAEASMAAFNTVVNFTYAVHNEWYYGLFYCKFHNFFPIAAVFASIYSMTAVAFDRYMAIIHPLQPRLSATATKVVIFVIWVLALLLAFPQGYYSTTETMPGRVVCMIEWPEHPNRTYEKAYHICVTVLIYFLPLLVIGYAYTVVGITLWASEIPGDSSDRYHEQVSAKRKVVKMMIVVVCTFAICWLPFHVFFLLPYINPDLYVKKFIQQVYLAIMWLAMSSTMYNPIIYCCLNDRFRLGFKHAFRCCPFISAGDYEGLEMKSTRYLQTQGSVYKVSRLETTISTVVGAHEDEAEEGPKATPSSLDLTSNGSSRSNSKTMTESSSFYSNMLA
T3 sequence (Q5DUB3 whole entry): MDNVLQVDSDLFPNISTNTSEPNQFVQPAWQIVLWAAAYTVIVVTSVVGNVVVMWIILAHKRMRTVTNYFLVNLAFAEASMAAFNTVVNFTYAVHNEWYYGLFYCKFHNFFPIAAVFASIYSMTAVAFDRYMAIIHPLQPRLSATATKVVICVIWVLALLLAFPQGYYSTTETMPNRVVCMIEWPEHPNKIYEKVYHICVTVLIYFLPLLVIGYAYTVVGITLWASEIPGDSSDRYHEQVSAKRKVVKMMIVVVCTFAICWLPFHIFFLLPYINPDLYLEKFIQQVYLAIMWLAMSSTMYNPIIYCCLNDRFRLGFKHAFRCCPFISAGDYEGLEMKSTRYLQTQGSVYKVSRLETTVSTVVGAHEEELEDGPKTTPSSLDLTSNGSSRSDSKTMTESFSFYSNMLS
Chain of NK1 receptor (Homo sapiens, UniProt P25103) (P25103 whole entry): as the sequence (Q5DUB3 whole entry) above, with Q6P, F12S, N176S, E280K, V358I, L369P, T375A, G386C, Y402S, M405V counted along it

Which “Tf Mean/% CV” value ([1]; 25 mg capsule, single oral dose, n = 5) does the source give for `C[C@@H](OC[C@@]1(c2ccccc2)CC[C@](C#N)(n2cn[nH]c2=O)CN1)c1cc(C(F)(F)F)cc(C(F)(F)F)c1` [Compound 42, (3 S,6S)-6-({(1R)-1-[3,5-bis(trifluoromethyl)phenyl]ethoxy}methyl)-3-(5-oxo-1,5dihydro-4H-1,2,4-triazol-4-yl)-6-phenylpiperidine-3-carbonitrile] here?
The value was 312^b/0^ hr.

What about the “Cmax Mean/% CV” value ([1]; 25 mg capsule, single oral dose, n = 6) of the same compound?
The value was 213/27.

What about the “AUC(tf) Mean/% CV” value [1, 9] of the same compound?
The value was 29900/22.

And the “Tf Mean/% CV” value [1, 9]?
The value was 312/0.

And the “Cmax Mean/% CV” value ([1]; 25 mg solution, single oral dose, n = 5, adjusted for carryover)?
The value was 301/21.

And the “AUC(l) Mean/% CV” value [1, 10]?
The value was 88700/23.

What about the “AUC(tf) Mean/% CV” value [1, 10] of the same compound?
Its value is 59700/24.

And the “Cmax Mean/% CV” value [1, 10]?
The value was 388/32.

And the “T1/2 Mean/% CV” value [1, 10]?
The value was 309/32.

And the “Tf Mean/% CV” value [1, 10]?
Its value is 504/0.

And the “AUC(tf) Mean/% CV” value [1, 11]?
The value was 69000/19.

And the “Tf Mean/% CV” value [1, 11]?
Its value is 504/0.

What about the “Cmax Mean/% CV” value ([1]; 50 mg fed, single oral dose, n = 6, adjusted for carryover) of the same compound?
Its value is 366/23.

And the “bioavailability, solution versus capsule oral formulations” value ([1]; healthy volunteers)?
The value was “comparable”.

And the “effect of food on oral bioavailability” value ([1]; healthy volunteers)?
The value was “no effect”.

And the safety and tolerability ([1]; healthy volunteers, oral doses up to 50 mg)?
The safety and tolerability was “safe and well tolerated”.

What about the absorption and elimination ([1]; healthy volunteers, single oral doses 10, 25, 50 mg) of the same compound?
Its absorption and elimination is “rapidly absorbed and slowly eliminated”.

And the AUC ([1]; human, plasma, oral, 10 mg to 200 mg dose, after a single dose, read-out: AUC plasma blood level)?
The AUC was 19000 to 352000 ng·h/mL.

What about the half-life ([1]; human, plasma, oral, human, read-out: t1/2 (half-life)) of the same compound?
Its half-life is 10 to 13 days.

And the Cmax ([1]; human, plasma, oral, 10 mg to 200 mg dosage range, based on values from volunteers given 10, 25 and 50 mg, read-out: Cmax (either calculated or estimated))?
The Cmax was 103 to 1480 ng/mL.

And the Tmax ([1]; human, plasma, oral, each dosage strength 10, 25, 50 mg)?
The Tmax was 0 to 4 h.

And the AUC ([1]; human, plasma, po, 25 mg, 25 mg capsule, single oral dose, n = 4, read-out: AUC(l) Mean/% CV)?
Its AUC is 42900 ng·h/mL.

What about the half-life ([1]; human, plasma, po, 25 mg, 25 mg capsule, single oral dose, n = 4, read-out: T1/2 Mean/% CV (converted)) of the same compound?
The half-life was 9.92 days.

What about the AUC ([1]; human, plasma, po, 25 mg, 25 mg capsule, single oral dose, n = 5, read-out: AUC(tf) Mean/% CV) of the same compound?
The AUC was 25700 ng·h/mL.

And the AUC ([1]; human, plasma, po, 25 mg, 25 mg solution, single oral dose, n = 4, read-out: AUC(l) Mean/% CV)?
The AUC was 52600 ng·h/mL.

And the half-life ([1]; human, plasma, po, 25 mg, 25 mg solution, single oral dose, n = 4, read-out: T1/2 Mean/% CV (converted))?
Its half-life is 10.5 days.

And the AUC ([1]; human, plasma, po, 50 mg, 50 mg fed, single oral dose, n = 4, read-out: AUC(l) Mean/% CV)?
Its AUC is 97000 ng·h/mL.

What about the half-life ([1]; human, plasma, po, 50 mg, 50 mg fed, single oral dose, n = 4, read-out: T1/2 Mean/% CV (converted)) of the same compound?
The half-life was 13.2 days.

What about the “exposure (Cmax and AUC) versus dose” value ([1]; single oral doses 10, 25, 50 mg) of the same compound?
Its value is “dose related”.

And the Kb (NK1 receptor [2])?
The Kb was 0.17 nM.

And the “systemic exposure after repeated administration” value ([3]; female and male rats, doses >=25 mg/kg, most likely CYP enzyme induction)?
Its value is “decreased following repeated administration”.

And the “plasma concentrations over 24 hours after 29th dose versus first dose” value ([3]; female rats 0.5 to 12.5 mg/kg, male rats 1 to 5 mg/kg)?
Its value is “greater”.

And the “systemic exposure (AUC) versus dose, single dose” value ([3]; male rats 0.6 to 500 mg/kg, female rats 0.5 to 250 mg/kg, no further increase at the highest doses)?
Its value is “increased with increasing dose”.

And the “exposure, effect of sex” value ([3]; rats)?
Its value is “higher in female rats than in male rats”.

And the exposure versus dose ([3]; rats, once daily oral doses for one month)?
The exposure versus dose was “generally increased as the dose increased”.

And the major elimination pathway ([3]; rats, oral administration)?
The major elimination pathway was “excretion into the feces”.

What about the plasma concentration-time profile ([3]; rats, listed as SCH 900978) of the same compound?
The plasma concentration-time profile was “extended absorption of SCH900978 with a long t1/2”.

And the plasma concentration-time profile ([3]; rats, listed as SCH900978)?
The plasma concentration-time profile was “extended absorption of the drug and a long apparent terminal elimination phase half-life”.

What about the Ki (NK2 receptor) of the same compound?
Its Ki is greater than 1000 nM.

And the “fold lower affinity than for the NK1 receptor” value (NK2 receptor; NK2 vs NK1)?
The value was “greater than 1000 fold”.

What about the “maximal inhibition of capsaicin-induced cough” value (capsaicin-induced cough) of the same compound?
The value was “comparable to that produced by the standard antitussive agents”.

And the “ED90, capsaicin-induced cough” value (capsaicin-induced cough; oral, six hours prior to aerosolized capsaicin)?
The value was 0.04 mg/kg.

And the Ki (NK1 receptor [4])?
The Ki was 0.2 nM.

What about the “crossing of the blood brain barrier” value [5] of the same compound?
Its value is “readily crossed the blood brain barrier”.

And the “crossing of the blood brain barrier” value (Brain penetration, rats)?
Its value is “readily crossed the blood brain barrier”.

And the “inhibition of substance P-elicited increase in minute volume” value (NK1 receptor [6])?
The value was “maximally inhibited”.

And the “inhibition of substance P-elicited reduction in blood pressure” value (NK1 receptor [6])?
Its value is “maximally inhibited”.

What about the “duration of significant inhibition of NK1 agonist-induced foot thumping” value (NK1 receptor [7]; 0.3 mg/kg oral dose) of the same compound?
Its value is “up to 48 hours”.

And the “ED90, effective dose for 90% inhibition of foot thumping” value (NK1 receptor [7]; oral, six hours before testing, GR 73632-induced)?
Its value is 0.2 mg/kg.

What about the “exposure, effect of sex” value ([8]; monkeys) of the same compound?
The value was “independent of sex”.

And the “systemic exposure versus dose, single dose” value ([8]; monkeys)?
Its value is “increased with increasing dose”.

What about the “plasma concentrations over 24 hours after 29th dose versus first dose” value ([8]; monkeys 0.5 to 30 mg/kg) of the same compound?
Its value is “greater”.

And the exposure versus dose ([8]; monkeys, once daily oral doses for one month)?
The exposure versus dose was “generally increased as the dose increased”.

And the major elimination pathway ([8]; monkeys, oral administration)?
The major elimination pathway was “excretion into the feces”.

And the plasma concentration-time profile ([8]; monkeys, listed as SCH 900978)?
Its plasma concentration-time profile is “extended absorption of SCH900978 with a long t1/2”.

What about the plasma concentration-time profile ([8]; monkeys, listed as SCH900978) of the same compound?
Its plasma concentration-time profile is “extended absorption of the drug and a long apparent terminal elimination phase half-life”.

And the NOAEL (in vivo; female, rat)?
Its NOAEL is no less than 12.5 mg/kg.

And the NOAEL (in vivo; male, cynomolgus monkey)?
Its NOAEL is no less than 10 mg/kg.

And the NOAEL (in vivo; male, rat)?
The NOAEL was no less than 25 mg/kg.
